Like-named read-outs stand apart in the source and are kept apart here.

These results are taken from publication PMC6268628, “Steroidal and Phenolic Glycosides from the Bulbs of Lilium pumilum DC and Their Potential Na^+/K^+ ATPase Inhibitory Activity” (Molecules, 2012).

The assay concerns the target T1, Ouabain sensitive dog kidney Na^+/K^+ ATPase (Canis lupus familiaris, UniProt P50997).
T1 construct: Ouabain sensitive dog kidney Na^+/K^+ ATPase was obtained from Sigma (Shanghai, China); purchased Sigma (Shanghai, China); host or cells: dog kidney (tissue-derived enzyme preparation)
Kind of assay: Assay of Na+/K+ ATPase activity (released inorganic phosphate, absorbance at 660 nm). The class given is biochemical. The method, then:
Specific rotation measurements were recorded on a Perkin-Elmer 242 MC polarimeter. UV spectra were recorded on a Hewlett-Packard HP-845 UV-VIS spectrophotometer. IR spectra were recorded on a Nicolet 470 spectrometer and MS on a Varian MAT-212 mass spectrometer and a Shimadzu GC-MS model QP2010 Plus spectrophotometer, respectively. NMR spectra were recorded on a Bruker AM-400 spectrameter (400 MHz for ^1H-NMR) or a Bruker DRX-500 (500 MHz for ^1H-NMR) spectrameter using standard Bruker pulse programs. Chemical shifts are given as δ values with reference to tetramethylsilane (TMS) as internal standard. Column chromatography separations were carried out on silica gel (200–300 mesh, Qingdao Haiyang Chemical Co. Ltd, Qingdao, China), ODS (50 mesh, AA12S50, YMC), Diaion HP-20 (Pharmacia, Peapack, NJ, USA) and Sephadex LH-20 (Pharmacia, Peapack, NJ, USA). Ouabain sensitive dog kidney Na^+/K^+ ATPase was obtained from Sigma (Shanghai, China). All other chemicals used were of biochemical reagent grade.
The Na^+/K^+ ATPase activity was assayed according to the reported method with some modification. […] The released inorganic phosphate was determined by the following method. […] After 25 min, the absorbance at 660 nm was recorded.

On to `CC1CCC2(OC1)OC1CC3C4CC(=O)C5CC(OC6OC(CO)C(O)C(O)C6OC6OC(C)C(O)C(O)C6O)CCC5(C)C4CCC3(C)C1C2C` [Compound 3, (25R)-3β-hydroxyl-5α-spirostan-6-one 3-O-α-L-rhamnopyranosyl-(1→2)-β-D-glucopyranoside], for which the IC50 (0.02 units enzyme, 3 mM ATP, pH 7.3, 37 °C, 20 min, 5% DMSO, read-out: IC50, inhibitory activity on Na^+/K^+ ATPase) is 73 µM.

In the case of `C[C@@H]1O[C@@H](O[C@H]2C[C@@H](O)[C@]3(CO)[C@H]4[C@H](O)C[C@]5(C)[C@@H](C6=CC(=O)OC6)CC[C@]5(O)[C@@H]4CC[C@]3(O)C2)[C@H](O)[C@H](O)[C@H]1O` [Ouabain, reference compound], the IC50 was 1 µM.
